According to US8492441B2, “Dosage regimen of an S1P receptor agonist” (Novartis AG, priority 2008, dated 2013):

Tests used:
multiple sclerosis = conditions: humans; cited from earlier work
healthy subjects [1] = conditions: administration of 1.25 mg; cited from earlier work
healthy subjects [2] = test: Absolute lymphocyte count after multiple daily doses (FIG. 2); format: in vivo, human
From the text: Preferred medications comprise medication for patients suffering from chronic longterm diseases, such as autoimmune diseases, e.g. multiple sclerosis, Polymyositis, lupus nephritis, rheumatoid arthritis, inflammatory bowel diseases or psoriasis. In an embodiment of the invention, medications are medications for patients suffering from multiple sclerosis, for example relapse remitting multiple sclerosis (RRMS) or primary progressive multiple sclerosis (PPMS), e.g. for patients suffering from RRMS.

subjects [3] = test: Example 1 dose titration study: continuous telemetry of heart rate (daily minimum heart rate, HRmin); format: in vivo, human
Procedure: (§1) Increasing doses of Compound A starting at 0.25 mg o.d. and ending at the maximal therapeutic dose of 10 mg o.d. are given to 28 subjects over 12 days as specified in Table 1 below. A placebo group and a positive control group receiving the 10 mg final therapeutic dose are also included in the study (each of 14 subjects).
On Day −1 (baseline), subjects undergo baseline assessments including 24 hour holter monitoring and telemetry assessments. Subjects remain on continuous telemetry, starting before breakfast on Day −1 and proceeding throughout the administration period up to Day 13 (24 hour after the last dose). Over this 13 day duration of continuous heart rate collection for each subject, one heart rate value is obtained every minute (‘minute unit heart rate’), representing the average heart rate value over that minute. The heart rate database for each subject contains approximately […] data points (13 days×24 hr×60 min).
The daily chronotropic effect is defined as the percent decrease in HRmin between two consecutive days. It is calculated on days 1 to 12.
(§2) Cardiac conduction intervals: arrhythmia monitoring includes the frequency and duration of sinus pauses (>2 sec and >3 sec) and atrio-ventricular blocks. Frequency and duration of atrial and ventricular ectopy and sinus rhythm are also recorded. The daily chronotropic effect is defined as the percent decrease in HRmin, (minimum heart rate) between two consecutive days. It is calculated on days 1 to 12.
The variation in daily minimum heart rate, HRmin (minimum of 24 hourly mean heart rates) over the course of the study is shown in FIG. 1.

subjects [4] = test: Example 1 dose titration study: Holter monitoring of ectopies (SVEs, VEs) and pauses >2 secs; format: in vivo, human; conditions: for subjects with total number of SVEs 0-10 / subjects with total number of SVEs 11-20 / subjects with total number of SVEs 21-50 / subjects with total number of SVEs >50 / subjects with total number of VEs 0-5 / subjects with total number of VEs 6-10 / subjects with total number of VEs 11-30 / subjects with total number of VEs >30 / subjects with total number of pauses >2 secs: 0 / subjects with total number of pauses >2 secs: 1 / subjects with total number of pauses >2 secs: >1: any time during the 12-day treatment period
Procedure: as §1
Pharmacodynamic and safety assessments are performed up to 24 hours post last dose. Heart rhythm is assessed via 24 hr continuous holter monitoring on Day −1, Day 1, Day 11 and Day 12. For each dosing for each subject, the drug is administered as closely as practically possible to the time administered on Day −1. Safety assessments includes physical examinations, vital signs and body measurements, 12-lead ECG evaluations, standard clinical laboratory evaluations hematology, blood chemistry, urinalysis, adverse event and serious adverse event monitoring.
24-hour continuous Holter-ECG data are captured via a digital Holter monitor (12-lead, on Days […]), and transferred for interpretation and reporting. Holter monitoring starts approximately at 7:00 and the time of dose administration is regarded as the time “0 hours”. Holter “cuts” are derived from the dataset at 1 hour intervals starting from Day −1 and continuing for 24 hours or the end of the cleaned Holter monitoring dataset.
as §2

[5] = 10 mg daily from Day 1 (N = 14)
[6] = DT#1 titration 0.25 to 10 mg (N = 14)
[7] = DT#2 titration (Fibonacci) 0.25 to 10 mg (N = 14)

Question: With `CCCCCCCCc1ccc(CCC(N)(CO)CO)cc1` [FTY720] as the compound, how does the “efficacy in the treatment of multiple sclerosis” value (multiple sclerosis) read?
Answer: has been demonstrated in humans

Question: And the “decrease in heart rate” value (healthy subjects [1])?
Answer: approximately 8 beats/min (BPM)

Question: For `CCc1cc(/C(C)=N/OCc2ccc(C3CCCCC3)c(C(F)(F)F)c2)ccc1CN1CC(C(=O)O)C1` [Compound A, 1-{4-[1-(4-cyclohexyl-3-trifluoromethyl-benzyloxyimino)-ethyl]-2-ethyl-benzyl}-azetidine-3-carboxylic acid], which “absolute lymphocyte count in the blood” value (healthy subjects [2]) is on record?
Answer: reduces the absolute lymphocyte count

Question: And the “increase in heart rate” value (subjects [3]; 10 mg treatment group, from Day 1 to Day 2)?
Answer: approximately 5 BPM

Question: What about the “decrease in heart rate” value (subjects [3]; 10 mg treatment group, from Day -1 to Day 1) of the same compound?
Answer: approximately 8 BPM

Question: What about the “further increase in heart rate” value (subjects [3]; 10 mg treatment group, from day 2 to day 4) of the same compound?
Answer: approximately 3 BPM

Question: What about the “gradual decrease in heart rate per day” value (subjects [3]; both titration groups (DT#1, DT#2), first seven days of the dose titration) of the same compound?
Answer: 1-2 BPM per day

Question: What about the “total reduction in heart rate” value (subjects [3]; both titration groups (DT#1, DT#2), over the first seven days of the dose titration) of the same compound?
Answer: 4-5 BPM

Question: What about the “heart rate recovery after day 7” value (subjects [3]; both titration groups, over the next 2-3 days after the first seven days) of the same compound?
Answer: the heart rate increased to approximately the placebo level

Question: What about the “dip in heart rate on initiation of the 10 mg dose after titration” value (subjects [3]; titration groups, 10 mg dose initiated on Days 8 and 9, compared to preceding days) of the same compound?
Answer: did not result in a significant dip in heart rate

Question: What about the “effect of dose titration regimen on negative chronotropic effect” value (subjects [3]; titration regimen vs Day 1 of 10 mg dose treatment initiation) of the same compound?
Answer: attenuates the negative chronotropic effect

Question: And the “subjects with total number of SVEs 0-10” value (subjects [4]; [5])?
Answer: 1 (7.1%) n (%)

Question: What about the “subjects with total number of SVEs 11-20” value (subjects [4]; [5]) of the same compound?
Answer: 2 (14.3%) n (%)

Question: What about the “subjects with total number of SVEs 21-50” value (subjects [4]; [5]) of the same compound?
Answer: 5 (35.7%) n (%)

Question: What about the “subjects with total number of SVEs >50” value (subjects [4]; [5]) of the same compound?
Answer: 6 (42.9%) n (%)

Question: And the “subjects with total number of VEs 0-5” value (subjects [4]; [5])?
Answer: 6 (42.9%) n (%)

Question: And the “subjects with total number of VEs 6-10” value (subjects [4]; [5])?
Answer: 4 (28.6%) n (%)

Question: And the “subjects with total number of VEs 11-30” value (subjects [4]; [5])?
Answer: 1 (7.1%) n (%)

Question: And the “subjects with total number of VEs >30” value (subjects [4]; [5])?
Answer: 3 (21.4%) n (%)

Question: And the “subjects with total number of pauses >2 secs: 0” value (shortened to “subjects … of pauses >2 secs: 0”) (subjects [4]; [5])?
Answer: 10 (71.4%) n (%)

Question: And the “subjects with total number of pauses >2 secs: 1” value (“subjects … of pauses >2 secs: 1” for short) (subjects [4]; [5])?
Answer: 1 (7.1%) n (%)

Question: What about the “subjects with total number of pauses >2 secs: >1” value (“subjects with total number … >1” below) (subjects [4]; [5]) of the same compound?
Answer: 3 (21.4%) n (%)

Question: And the “subjects with total number of SVEs 0-10” value (subjects [4]; [6])?
Answer: 1 (7.1%) n (%)

Question: What about the “subjects with total number of SVEs 11-20” value (subjects [4]; [6]) of the same compound?
Answer: 3 (21.4%) n (%)

Question: And the “subjects with total number of SVEs 21-50” value (subjects [4]; [6])?
Answer: 2 (14.3%) n (%)

Question: What about the “subjects with total number of SVEs >50” value (subjects [4]; [6]) of the same compound?
Answer: 8 (57.1%) n (%)

Question: And the “subjects with total number of VEs 0-5” value (subjects [4]; [6])?
Answer: 3 (21.4%) n (%)

Question: What about the “subjects with total number of VEs 6-10” value (subjects [4]; [6]) of the same compound?
Answer: 5 (35.7%) n (%)

Question: What about the “subjects with total number of VEs 11-30” value (subjects [4]; [6]) of the same compound?
Answer: 4 (28.6%) n (%)

Question: And the “subjects with total number of VEs >30” value (subjects [4]; [6])?
Answer: 2 (14.3%) n (%)

Question: What about the “subjects … of pauses >2 secs: 0” value (subjects [4]; [6]) of the same compound?
Answer: 10 (71.4%) n (%)

Question: What about the “subjects … of pauses >2 secs: 1” value (subjects [4]; [6]) of the same compound?
Answer: 1 (7.1%) n (%)

Question: What about the “subjects with total number … >1” value (subjects [4]; [6]) of the same compound?
Answer: 3 (21.4%) n (%)

Question: What about the “subjects with total number of SVEs 0-10” value (subjects [4]; [7]) of the same compound?
Answer: 0 n (%)

Question: What about the “subjects with total number of SVEs 11-20” value (subjects [4]; [7]) of the same compound?
Answer: 1 (7.1%) n (%)

Question: And the “subjects with total number of SVEs 21-50” value (subjects [4]; [7])?
Answer: 4 (28.6%) n (%)

Question: What about the “subjects with total number of SVEs >50” value (subjects [4]; [7]) of the same compound?
Answer: 9 (64.3%) n (%)

Question: And the “subjects with total number of VEs 0-5” value (subjects [4]; [7])?
Answer: 3 (21.4%) n (%)

Question: What about the “subjects with total number of VEs 6-10” value (subjects [4]; [7]) of the same compound?
Answer: 2 (14.3%) n (%)

Question: What about the “subjects with total number of VEs 11-30” value (subjects [4]; [7]) of the same compound?
Answer: 5 (35.7%) n (%)

Question: And the “subjects with total number of VEs >30” value (subjects [4]; [7])?
Answer: 4 (28.6%) n (%)

Question: And the “subjects … of pauses >2 secs: 0” value (subjects [4]; [7])?
Answer: 13 (92.9%) n (%)

Question: What about the “subjects … of pauses >2 secs: 1” value (subjects [4]; [7]) of the same compound?
Answer: 0 n (%)

Question: And the “subjects with total number … >1” value (subjects [4]; [7])?
Answer: 1 (7.1%) n (%)

Question: And the “number of heart pauses greater than 2 seconds, comparison of regimens” value (subjects [4]; second titration regimen DT#2 (Fibonacci sequence) vs the other active treatment regimens)?
Answer: lower number of heart pauses greater than 2 seconds
